# Laboratory results as given in patent US10849881B2, “Octahydro-cyclobuta[1,2-c;3,4-c′]dipyrrol-2-yl” (Hoffmann-La Roche Inc., priority 2013, dated 2020).
# Molecular target: ATX (human His-tagged) (Homo sapiens (Human), UniProt Q13822)
# Test: Human ATX enzyme inhibition assay (fluorescence quenching, MR121 substrate)
# Type: biochemical
# Details: 30 nM ATX, 1 μM MR121 substrate, 30° C., pH 8.0
# How it was run: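 Fluorescence quenching assay with MR121/tryptophan-labelled substrate analogue in Tris-HCl buffer (140 mM NaCl, CaCl2, MgCl2, 0.01% Triton X-100, pH 8.0). Serially diluted compounds were preincubated 15 min at 30 °C with 30 nM ATX (final), then 1 µM substrate (final) added and incubated 15 min at 30 °C.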
row,Compound,IC50 [nM]
1,"N#Cc1ccc2[nH]c(C(=O)N3C[C@@H]4[C@H]5CN(C(=O)c6ccc7[nH]nnc7c6)C[C@H]5[C@@H]4C3)cc2c1 [Example 1.027, 2-[(3aR,3bS,6aR,6bS)-5-(1H-benzotriazole-5-carbonyl)-octahydro-cyclobuta[1,2-c;3,4-c′]dipyrrole-2-carbonyl]-1H-indole-5-carbonitrile]",828
2,"N#CCn1c(C(=O)N2C[C@@H]3[C@H]4CN(C(=O)c5ccc6[nH]nnc6c5)C[C@H]4[C@@H]3C2)cc2ccccc21 [Example 1.036, {2-[(3aR,3bS,6aR,6bS)-5-(1H-benzotriazole-5-carbonyl)-octahydro-cyclobuta[1,2-c;3,4-c′]dipyrrole-2-carbonyl]-indol-1-yl}-acetonitrile]",130
3,"O=C(c1ccc2[nH]nnc2c1)N1C[C@@H]2[C@H](C1)[C@H]1CN(C(=O)c3cc(-c4ccc(Cl)cc4)c(OCC(F)(F)F)cn3)C[C@@H]21 [Example 1.107, (1H-benzotriazol-5-yl)-{(3aS,3bR,6aS,6bR)-5-[4-(4-chloro-phenyl)-5-(2,2,2-trifluoro-ethoxy)-pyridine-2-carbonyl]-octahydro-cyclobuta[1,2-c;3,4-c′]dipyrrol-2-yl}-methanone]",141
4,"COc1c(C(=O)N2C[C@@H]3[C@H]4CN(C(=O)c5ccc6[nH]nnc6c5)C[C@H]4[C@@H]3C2)ccc2ccccc12 [Example 1.022, [(3aS,3bS,6aR,6bR)-5-(1H-benzotriazole-5-carbonyl)-octahydro-cyclobuta[1,2-c;3,4-c′]dipyrrol-2-yl]-(1-methoxy-naphthalen-2-yl)-methanone]",155
5,"Cc1ccc(C(=O)N2C[C@@H]3[C@H](C2)[C@H]2CN(C(=O)c4ccc(OCC5CC5)nn4)C[C@@H]32)cc1C [Example 1.102, [(3aS,3bR,6aS,6bR)-5-(6-cyclopropylmethoxy-pyridazine-3-carbonyl)-octahydro-cyclobuta[1,2-c;3,4-c′]dipyrrol-2-yl]-(3,4-dimethyl-phenyl)-methanone]",992
6,"Cn1c(C(=O)N2C[C@@H]3[C@H]4CN(C(=O)c5ccc6[nH]nnc6c5)C[C@H]4[C@@H]3C2)cc2ccc(Cl)cc21 [Example 1.034, [(3aR,3bS,6aR,6bS)-5-(1H-benzotriazole-5-carbonyl)-octahydro-cyclobuta[1,2-c;3,4-c′]dipyrrol-2-yl]-(6-chloro-1-methyl-1H-indol-2-yl)-methanone]",489
7,"O=C(c1cc(OCC2CC2)c2ccccc2c1)N1C[C@@H]2[C@H](C1)[C@H]1CN(C(=O)c3ccc4[nH]nnc4c3)C[C@@H]21 [Example 1.025, [(3aS,3bS,6aR,6bR)-5-(1H-benzotriazole-5-carbonyl)-octahydro-cyclobuta[1,2-c;3,4-c′]dipyrrol-2-yl]-(4-cyclopropylmethoxy-naphthalen-2-yl)-methanone]",8.5
8,"O=C(c1ccc2[nH]nnc2c1)N1C[C@@H]2[C@H](C1)[C@H]1CN(C(=O)c3cc4ccc(Cl)cc4[nH]3)C[C@@H]21 [Example 1.033, [(3aR,3bS,6aR,6bS)-5-(1H-benzotriazole-5-carbonyl)-octahydro-cyclobuta[1,2-c;3,4-c′]dipyrrol-2-yl]-(6-chloro-1H-indol-2-yl)-methanone]",104
9,"O=C(c1cnc(OCC(F)(F)F)c(C2CC2)c1)N1C[C@@H]2[C@H](C1)[C@H]1CN(C(=O)c3ccc4[nH]nnc4c3)C[C@@H]21 [Example 1.104, (1H-benzotriazol-5-yl)-{(3aS,3bS,6aR,6bR)-5-[5-cyclopropyl-6-(2,2,2-trifluoro-ethoxy)-pyridine-3-carbonyl]-octahydro-cyclobuta[1,2-c;3,4-c′]dipyrrol-2-yl}-methanone]",10
10,"Cn1c(C(=O)N2C[C@@H]3[C@H]4CN(C(=O)c5ccc6[nH]nnc6c5)C[C@H]4[C@@H]3C2)cc2cc(OC(F)(F)F)ccc21 [Example 1.032, [(3aR,3bS,6aR,6bS)-5-(1H-benzotriazole-5-carbonyl)-octahydro-cyclobuta[1,2-c;3,4-c′]dipyrrol-2-yl]-(1-methyl-5-trifluoromethoxy-1H-indol-2-yl)-methanone]",13

# Results, then the molecule that gave them:
row,IC50 [nM],Compound
1,14,"O=C(c1ccc2[nH]nnc2c1)N1C[C@@H]2[C@H](C1)[C@H]1CN(C(=O)c3cc(OCc4ccccc4)c4cc[nH]c4c3)C[C@@H]21 [Example 1.053, [(3aS,3bS,6aR,6bR)-5-(1H-benzotriazole-5-carbonyl)-octahydro-cyclobuta[1,2-c;3,4-c′]dipyrrol-2-yl]-(4-benzyloxy-1H-indol-6-yl)-methanone]"
2,5,"CCn1ccc2c(OC(C)C)cc(C(=O)N3C[C@@H]4[C@H]5CN(C(=O)c6ccc7[nH]nnc7c6)C[C@H]5[C@@H]4C3)cc21 [Example 1.074, [(3aS,3bS,6aR,6bR)-5-(1H-benzotriazole-5-carbonyl)-octahydro-cyclobuta[1,2-c;3,4-c′]dipyrrol-2-yl]-(1-ethyl-4-isopropoxy-1H-indol-6-yl)-methanone]"
3,20,"O=C(c1ccc2[nH]nnc2c1)N1C[C@@H]2[C@H](C1)[C@H]1CN(C(=O)c3ccc(-c4ccc(Cl)cc4)c(=O)[nH]3)C[C@@H]21 [Example 1.075, 6-[(3aR,3bS,6aR,6bS)-5-(1H-benzotriazole-5-carbonyl)-octahydro-cyclobuta[1,2-c;3,4-c′]dipyrrole-2-carbonyl]-3-(4-chloro-phenyl)-1H-pyridin-2-one]"
4,3.5,"CC(C)Oc1cc(C(=O)N2C[C@@H]3[C@H](C2)[C@H]2CN(C(=O)c4ccc5[nH]nnc5c4)C[C@@H]32)cc2c1CCCC2 [Example 1.078, [(3aS,3bS,6aR,6bR)-5-(1H-benzotriazole-5-carbonyl)-octahydro-cyclobuta[1,2-c;3,4-c′]dipyrrol-2-yl]-(4-isopropoxy-5,6,7,8-tetrahydro-naphthalen-2-yl)-methanone]"
5,4.5,"O=C(OCc1cc(Cl)cc(Cl)c1)N1C[C@@H]2[C@H](C1)[C@H]1CN(C(=O)c3ccc4[nH]nnc4c3)C[C@@H]21 [Example 2.001, (3aR,3bS,6aR,6bS)-5-(1H-Benzotriazole-5-carbonyl)-octahydro-cyclobuta[1,2-c;3,4-c′]dipyrrole-2-carboxylic Acid 3,5-dichloro-benzyl Ester]"
6,232,"O=C(c1ccc2[nH]nnc2c1)N1C[C@@H]2[C@H](C1)[C@H]1CN(S(=O)(=O)c3ccc4cc(Cl)ccc4c3)C[C@@H]21 [Example 3.001, (1H-Benzotriazol-5-yl)-[(3aS,3bR,6aS,6bR)-5-(6-chloro-naphthalene-2-sulfonyl)-octahydro-cyclobuta[1,2-c;3,4-c′]dipyrrol-2-yl]-methanone]"
7,17,"O=C(c1ccc2[nH]nnc2c1)N1C[C@@H]2[C@H](C1)[C@H]1CN(C(=O)c3ccc(C(F)(F)F)c(OCC4CC4)n3)C[C@@H]21 [Example 1.093, (1H-benzotriazol-5-yl)-[(3aS,3bR,6aS,6bR)-5-(6-cyclopropylmethoxy-5-trifluoromethyl-pyridine-2-carbonyl)-octahydro-cyclobuta[1,2-c;3,4-c′]dipyrrol-2-yl]-methanone]"
8,17,"CCOc1cc(C(=O)N2C[C@@H]3[C@H](C2)[C@H]2CN(C(=O)c4ccc5[nH]nnc5n4)C[C@@H]32)nc2ccc(C(F)(F)F)cc12 [Example 1.091, [(3aS,3bS,6aR,6bR)-5-(4-ethoxy-6-trifluoromethyl-quinoline-2-carbonyl)-octahydro-cyclobuta[1,2-c;3,4-c′]dipyrrol-2-yl]-(1H-[1,2,3]triazolo[4,5-b]pyridin-5-yl)-methanone]"
9,2.5,"CCOc1cc(C(=O)N2C[C@@H]3[C@H]4CN(C(=O)c5ccc6[nH]nnc6c5)C[C@H]4[C@@H]3C2)nc2ccc(C(F)(F)F)cc12 [Example 1.080, (1H-benzotriazol-5-yl)-[(3aS,3bR,6aS,6bR)-5-(4-ethoxy-6-trifluoromethyl-quinoline-2-carbonyl)-octahydro-cyclobuta[1,2-c;3,4-c′]dipyrrol-2-yl]-methanone]"
10,4.7,"O=C(c1ccc2[nH]nnc2c1)N1C[C@@H]2[C@H](C1)[C@H]1CN(C(=O)c3cc4ccccc4c(OCC(F)(F)F)n3)C[C@@H]21 [Example 1.060, [(3aR,3bS,6aR,6bS)-5-(1H-benzotriazole-5-carbonyl)-octahydro-cyclobuta[1,2-c;3,4-c′]dipyrrol-2-yl]-[1-(2,2,2-trifluoro-ethoxy)-isoquinolin-3-yl]-methanone]"
11,1410,"O=C(c1ccc2[nH]ccc2c1)N1C[C@@H]2[C@H](C1)[C@H]1CN(C(=O)c3ccc4[nH]nnc4c3)C[C@@H]21 [Example 1.043, [(3aS,3bS,6aR,6bR)-5-(1H-benzotriazole-5-carbonyl)-octahydro-cyclobuta[1,2-c;3,4-c′]dipyrrol-2-yl]-(1H-indol-5-yl)-methanone]"
12,5.3,"O=C(c1ccc2[nH]nnc2c1)N1C[C@@H]2[C@H](C1)[C@H]1CN(C(=O)c3cc4ccccc4c(OCC4CC4)n3)C[C@@H]21 [Example 1.058, [(3aR,3bS,6aR,6bS)-5-(1H-benzotriazole-5-carbonyl)-octahydro-cyclobuta[1,2-c;3,4-c′]dipyrrol-2-yl]-(1-cyclopropylmethoxy-isoquinolin-3-yl)-methanone]"
13,1,"O=C(c1cc2ccccc2c(OCC2CC2)n1)N1C[C@@H]2[C@H](C1)[C@H]1CN(C(=O)[C@@H]3CCc4[nH]nnc4C3)C[C@@H]21 [Example 1.064, (1-cyclopropylmethoxy-isoquinolin-3-yl)-[(3aR,3bS,6aR,6bS)-5-((R)-4,5,6,7-tetrahydro-1H-benzotriazole-5-carbonyl)-octahydro-cyclobuta[1,2-c;3,4-c′]dipyrrol-2-yl]-methanone]"
